Data taken from patent publication US12390402B2, “High-content and sustained-release retinoid capsule, and composition for reducing wrinkles, containing same” (LG HOUSEHOLD & HEALTH CARE LTD., priority 2018, dated 2025).

Assay: Solubility of retinoic acid in the liquid lipid
Assay type: physicochemical
Procedure: FIG. 2 is the result of the solubility in oil according to the binding of an amine compound and retinoid.
As shown in the Table 2, the maximum concentration of the retinoic acid soluble in the liquid lipid was 0.1% of the weight of the liquid lipid, and when added more the above, the retinoic acid was not dissolved, making it impossible to synthesize capsules (Comparative examples 1, 2, 3). On the other hand, it was determined that the solubility of retinoic acid was increased over 10% of the weight of the liquid lipid, when the amine compound at the same mole concentration as retinoic acid was added during dissolving retinoic acid in the liquid lipid (See Table 2). Through this, the dry weight of the retinoid in the final capsule after washing could be increased 100 times from conventional 0.03% to 3%.

- maximum concentration of the retinoic acid soluble in the liquid lipid (without amine compound, caprylic/capryl triglyceride): 0.1 % of the weight of the liquid lipid
Compound: CC1=C(/C=C/C(C)=C/C=C/C(C)=C/C(=O)O)C(C)(C)CCC1 [retinoic acid]
- solubility of retinoic acid in the liquid lipid (amine compound added at the same mole concentration as retinoic acid): over 10 % of the weight of the liquid lipid
